# Experimental data as given in EP0080305A1, “Antiviral 2'-deoxyuridines, their preparation and use” (BEECHAM GROUP PLC, priority 1981, dated 1983).
# Where a name gives a salt, the structure may show the parent alone. Read-outs that look alike come from different tables or passages of the source.
# Key:
# [1] = test system: Herpes simplex type 1 virus (HFEM strain); test: Plaque reduction test in Vero cells infected with Herpes simplex type 1 virus; assay type: cell-based
# Description: (§1) Vero (African Green Monkey Kidney) cells were grown to confluence in 6 well multidishes, each well being 3.5 cm in diameter. The cells were incubated with Herpes simplex type 1 virus (HFEM strain) and overlaid with 0.5 mL of 0.9% agarose (w/v) in maintenance medium containing the test compound at a range of concentrations from 3 µg/mL in half-log dilution steps. The virus infected cultures were then incubated at 37 °C for 6 days before fixing in 4% formaldehyde solution and staining with carbolfuchsin. The dishes were then examined to find what concentration of test compound causing a 50% reduction in the number of virus plaques formed (PDD50 value) and the minimum concentration of test compound which killed the cell monolayer, leaving a clear zone devoid of cells and virus plaques (MTD).
# [2] = Minimum concentration killing the Vero cell monolayer, read in the plaque reduction test; assay type: cell-based, African Green Monkey; conditions: african green monkey; minimum concentration which killed the cell monolayer; virus-infected Vero cells, 6 days at 37°C; read-out: MTD
# Description: as §1
# [3] = Human alphaherpesvirus 1, Vero, 144 h, read-out: PDD50, concentration causing a 50% reduction in the number of virus plaques, 6 days at 37°C
# [4] = Human alphaherpesvirus 1, Vero, 144 h, read-out: PDD50, same PDD50 values given in µM, 6 days at 37°C
# [5] = Human alphaherpesvirus 1, 144 h, concentration causing a 50% reduction in the number of virus plaques, 6 days at 37°C, read-out: PDD50 (the source's name)
# [6] = Human alphaherpesvirus 1, 144 h, same PDD50 values given in µM, 6 days at 37°C, read-out: PDD50 (the source's name)
SMILES,"IC50 [1, 3] [µg/mL]","IC50 [1, 4] [µM]",MCC at 144 h [2] [µg/mL],"IC50 [1, 5] [µg/mL]","IC50 [1, 6] [µM]"
"O=C(OC[C@H]1O[C@@H](n2cc(/C=C/Br)c(=O)[nH]c2=O)C[C@@H]1O)[C@@H]1CCCN1 [Example 36, E-5-(2-Bromovinyl)-5'-L-prolyl-2'-deoxyuridine trifluoroacetate]",0.55,1.01,> 100,–,–
"CC(C)(C)OC(=O)NCCCC[C@H](NC(=O)OC(C)(C)C)C(=O)OC[C@H]1O[C@@H](n2cc(/C=C/Br)c(=O)[nH]c2=O)C[C@@H]1OC(=O)[C@H](CCCCNC(=O)OC(C)(C)C)NC(=O)OC(C)(C)C [Example 26, E-5-(2-Bromovinyl)-3',5'-bis-(Nβ,Nε-di-t-butoxycarbonyl-L-lysyl)-2'-deoxyuridine]",–,–,> 100,90,91
"NCC(=O)OC[C@H]1O[C@@H](n2cc(/C=C/Br)c(=O)[nH]c2=O)C[C@@H]1O [Example 13, E-5-(2-Bromovinyl)-5'-glycyl-2'-deoxyuridine trifluoroacetate]",0.94,1.87,> 100,–,–
"CC(C)(C)OC(=O)N[C@@H](Cc1ccccc1)C(=O)OC[C@H]1O[C@@H](n2cc(/C=C/Br)c(=O)[nH]c2=O)C[C@@H]1O [Example 3, E-5-(2-Bromovinyl)-5'-O-(tertbutoxycarbonylphenylalanyl)-2'-deoxyuridine]",–,–,> 100,0.25,0.43
"CC(C)[C@H](NC(=O)OC(C)(C)C)C(=O)OC[C@H]1O[C@@H](n2cc(/C=C/Br)c(=O)[nH]c2=O)C[C@@H]1OC(=O)[C@@H](NC(=O)OC(C)(C)C)C(C)C [Example 22, E-5-(2-Bromovinyl)-3',5'-di-(t-butoxy-carbonyl-L-valyl)-2'-deoxyuridine]",–,–,> 100,> 100,–
"NC(Cc1ccccc1)C(=O)O[C@H]1C[C@H](n2cc(/C=C/Br)c(=O)[nH]c2=O)O[C@@H]1CO (some centres unmarked) [Example 8, E-5-(2-Bromovinyl)-3'-O-phenylalanyl-2'-deoxyuridine trifluoroacetate]",0.45,0.76,> 100,–,–
"CC[C@H](C)[C@H](NC(=O)OC(C)(C)C)C(=O)OC[C@H]1O[C@@H](n2cc(/C=C/Br)c(=O)[nH]c2=O)C[C@@H]1OC(=O)[C@@H](NC(=O)OC(C)(C)C)[C@@H](C)CC [Example 23, E-5-(2-Bromovinyl)-3',5'-di-(t-butoxy-carbonyl-L-isoleucyl)-2'-deoxyuridine]",–,–,> 100,> 100,–
"CC(C)C[C@H](NC(=O)OC(C)(C)C)C(=O)OC[C@H]1O[C@@H](n2cc(/C=C/Br)c(=O)[nH]c2=O)C[C@@H]1OC(=O)[C@H](CC(C)C)NC(=O)OC(C)(C)C [Example 12, E-5-(2-Bromovinyl)-3',5'-di(t-butoxycarbonyl-L-leucyl)-2^1-deoxyuridine]",–,–,100,0.86,1.13
"CC(C)[C@H](N)C(=O)OC[C@H]1O[C@@H](n2cc(/C=C/Br)c(=O)[nH]c2=O)C[C@@H]1OC(=O)[C@@H](N)C(C)C [Example 33, E-5-(2-Bromovinyl)-3',5'-di-L-valyl-2'-deoxyuridine bis trifluoroacetate]",0.24,0.32,> 100,–,–
"NC(Cc1ccc(F)cc1)C(=O)OC[C@H]1O[C@@H](n2cc(/C=C/Br)c(=O)[nH]c2=O)C[C@@H]1OC(=O)C(N)Cc1ccc(F)cc1 (mixture of isomers) [Example 15, E-5-(2-Bromovinyl)-3',5'-di-(p-fluoro-DL-phenylalanyl)-2'-deoxyuridine bis trifluoroacetate]",–,–,> 100,0.8,0.9
"CC(C)C[C@@H](N)C(=O)OC[C@H]1O[C@@H](n2cc(/C=C/Br)c(=O)[nH]c2=O)C[C@@H]1OC(=O)[C@H](N)CC(C)C [Example 30, E-5-(2-Bromovinyl)-3',5'-di-D-leucyl-2'-deoxyuridine bis trifluoroacetate]",0.16,0.2,> 100,–,–
"N[C@H](Cc1ccccc1)C(=O)OC[C@H]1O[C@@H](n2cc(/C=C/Br)c(=O)[nH]c2=O)C[C@@H]1OC(=O)[C@H](N)Cc1ccccc1 [Example 31, E-5-(2-Bromovinyl)-3',5'-di-D-phenylalanyl--2'-deoxyuridine bis trifluoroacetate]",0.55,0.64,> 100,–,–
"NCC(=O)OC[C@H]1O[C@@H](n2cc(/C=C/Br)c(=O)[nH]c2=O)C[C@@H]1OC(=O)CN [Example 14, E-5-(2-Bromovinyl)-3',5'-di-glycyl-2'-deoxyuridine bis trifluoroacetate]",0.36,0.53,> 100,–,–
"CC(C)(C)OC(=O)NCC(=O)OC[C@H]1O[C@@H](n2cc(/C=C/Br)c(=O)[nH]c2=O)C[C@@H]1OC(=O)CNC(=O)OC(C)(C)C [Example 4, E-5-(2-Bromovinyl)-3',5'-di-O-(tert.butoxycarbonylglycyl)-2'-deoxyurdine]",–,–,> 100,1.95,3.01
CC(C)(C)OC(=O)N1CCC[C@H]1C(=O)OC[C@H]1O[C@@H](n2cc(/C=C/Br)c(=O)[nH]c2=O)C[C@@H]1O [Example 28],–,–,100,2.12,4
"CC(C)(C)OC(=O)N[C@H](Cc1ccccc1)C(=O)OC[C@H]1O[C@@H](n2cc(/C=C/Br)c(=O)[nH]c2=O)C[C@@H]1OC(=O)[C@@H](Cc1ccccc1)NC(=O)OC(C)(C)C [Example 20, E-5-(2-Bromovinyl)-3',5'-di-(t-butoxy-carbonyl-D-phenylalanyl)-2'-deoxyuridine]",–,–,> 100,> 100,–
"CC[C@H](C)[C@H](N)C(=O)OC[C@H]1O[C@@H](n2cc(/C=C/Br)c(=O)[nH]c2=O)C[C@@H]1OC(=O)[C@@H](N)[C@@H](C)CC [Example 34, E-5-(2-Bromovinyl)-3',5'-di-L-isoleucyl-2'-deoxyuridine bis trifluoroacetate]",0.4,0.51,> 100,–,–
"O=C(OC[C@H]1O[C@@H](n2cc(/C=C/Br)c(=O)[nH]c2=O)C[C@@H]1OC(=O)[C@@H]1CCCN1)[C@@H]1CCCN1 [Example 35, E-5-(2-Bromovinyl)-3',5'-di-L-prolyl-2'-deoxyuridine bis trifluoroacetate]",0.22,0.29,> 100,–,–
"O=C(O[C@H]1C[C@H](n2cc(/C=C/Br)c(=O)[nH]c2=O)O[C@@H]1CO)[C@@H]1CCCN1 [Example 37, E-5-(2-Bromovinyl)-3'-L-prolyl-2'-deoxyuridine trifluoroacetate]",0.68,1.25,> 100,–,–
"C[C@H](NC(=O)OC(C)(C)C)C(=O)OC[C@H]1O[C@@H](n2cc(/C=C/Br)c(=O)[nH]c2=O)C[C@@H]1OC(=O)[C@H](C)NC(=O)OC(C)(C)C [Example 24, E-5-(2-Bromovinyl)-3',5'-di-(t-butoxy-carbonyl-L-alanyl)-2'-deoxyuridine]",–,–,> 100,0.62,0.92
NC(Cc1ccccc1)C(=O)OC[C@H]1O[C@@H](n2cc(/C=C/Br)c(=O)[nH]c2=O)C[C@@H]1OC(=O)C(N)Cc1ccccc1 (some centres unmarked) [Example 10],0.19,0.24,> 100,–,–
"CC(C)(C)OC(=O)N[C@@H](Cc1ccccc1)C(=O)OC[C@H]1O[C@@H](n2cc(/C=C/Br)c(=O)[nH]c2=O)C[C@@H]1OC(=O)[C@H](Cc1ccccc1)NC(=O)OC(C)(C)C [Example 1, E-5-(2-Bromovinyl)-3',5'-di-O-(tertbutoxycarbonylphenylalanyl)-2'-deoxyuridine]",–,–,> 100,1.1,1.33
"CSCC[C@H](N)C(=O)OC[C@H]1O[C@@H](n2cc(/C=C/Br)c(=O)[nH]c2=O)C[C@@H]1OC(=O)[C@@H](N)CCSC [Example 32, E-5-(2-Bromovinyl)-3',5'-di-L-methionyl-2'-deoxyuridine bis trifluoroacetate]",0.26,0.32,> 100,–,–
"CC(C)(C)OC(=O)N[C@@H](Cc1ccccc1)C(=O)O[C@H]1C[C@H](n2cc(/C=C/Br)c(=O)[nH]c2=O)O[C@@H]1CO [Example 2, E-5-(2-bromovinyl)-3'-O-(tertbutoxycarbonylphenylalanyl)-2'-deoxyuridine]",–,–,> 100,0.16,0.28
"NC(=O)CC[C@H](N)C(=O)OC[C@H]1O[C@@H](n2cc(/C=C/Br)c(=O)[nH]c2=O)C[C@@H]1OC(=O)[C@@H](N)CCC(N)=O [Example 39, bis trifluoroacetate]",0.42,0.51,> 100,–,–
"CC(C)C[C@@H](NC(=O)OC(C)(C)C)C(=O)OC[C@H]1O[C@@H](n2cc(/C=C/Br)c(=O)[nH]c2=O)C[C@@H]1OC(=O)[C@@H](CC(C)C)NC(=O)OC(C)(C)C [Example 19, E-5-(2-Bromovinyl)-3',5'-di-(t-butoxy-carbonyl-D-leucyl)-2'-deoxyuridine]",–,–,> 100,> 100,–
"CC(C)(C)OC(=O)N1CCC[C@H]1C(=O)O[C@H]1C[C@H](n2cc(/C=C/Br)c(=O)[nH]c2=O)O[C@@H]1CO [Example 29, E-5-(2-Bromovinyl)-3'-(t-butoxycarbonyl-L-prolyl)-2'-decxyuridine]",–,–,100,0.64,1.21
